According to patent publication US9688653B2, “Ethoxyphenyl thienyl compounds and methods for the treatment of bacterial infections” (Duke University, priority 2013, dated 2017):

Columns and labels:
E. coli K1 strain UTI89 [1] = assay: Secondary assay 2: T7 phage-mediated lysis assay; format: cell-based, Escherichia coli; conditions: read-out: T7 phage IC50
Source text: D. Secondary Assay 2: Screening for Inhibitors of Bacterial Capsule Biogenesis—T7 Lysis Inhibition
Purpose: This secondary assay measures the compound mechanistic specificity for inhibition of bacterial capsule formation and excludes inhibitors of phage replication using a different bacteriophage (T7). In this assay, an increase in phage-induced lysis correlates to a decrease in capsule formation.
Purpose: This secondary assay measures the compound mechanistic specificity for inhibition of bacterial capsule formation using a different bacterial phage (T7). In this assay, an increase in phage-induced lysis correlates to a decrease in capsule formation.
Assay Description: T7 phage-mediated lysis assay: This assay determined if the mechanism of action of the compound is inhibition of phage infectivity or replication. The T7 phage has a nearly identical genome to K1F, without encoding an endosialidase. Its cycle of replication is similar to that of K1F as well. However, T7 entry into E. coli is inhibited by K capsules. This secondary assay was conducted in the 96 well plate format. […] Compounds were added in quadruplicate to plates in a concentration dependent manner in the range of 100-0.39 μM, followed by addition of 100 μL of bacterial culture. 1% DMSO (final well concentration) was included. The plates were tape sealed and shaken vigorously for 1.5 hr. An initial OD600 reading was measured to identify compounds that cause growth retardation or bacterial killing in the absence of phage. Next, T7 phage (5 μL) was added to all of the test wells. The plates were resealed and shaken vigorously at 37° C., and measurements of OD600 for phage-mediated lysis were taken after 3 hr. True inhibitors of capsule yielded bacteria that were susceptible to T7 phage and lysed within 2 hr of the addition of phage. […] The positive control drug C7 (100 μM final well concentration) was used in this screen.
T7 phage counter assay. This secondary assay was performed as previously described and was used to distinguish compounds with phage inhibitory effects from true polysaccharide capsule inhibitors. […] Thus, the presence of a capsule inhibits T7-mediated lysis. In this assay, an increase in phage-induced lysis correlates to a decrease in capsule formation. True inhibitors of capsule yielded bacteria that were susceptible to T7 phage and lysed within 2 hr of the addition of phage. […] The positive control molecule C7 (100 μM final well concentration) was used in this screen.

[2] = test system: Bladder carcinoma 5637 cells; assay: Cytotoxicity counterscreen, CellTiter Glo, 72 hr; format: cell-based, human
Method: B. Counterscreen: Cytotoxicity Screening for Potential Inhibitors of Bacterial Capsule Biogenesis.
Purpose: This cell-based assay measures the cytotoxicity of compounds in bladder carcinoma 5637 cells using luminescent cell viability assay readout.
Cytotoxicity assay: The cytotoxicity assay was performed as described in Section 6: Appendix. Hit cytotoxicity and the 50% toxic concentration (CC50) was determined and compared to the IC50 to calculate the selectivity index.
Assay Description: Cytotoxicity: Dose response testing (dose range=300-0.58 μM) established the hit cytotoxicity data. Compounds were plated in 384-well microplates in a stacked dose response format using the same doses used in the efficacy dose response. Bladder carcinoma 5637 cells were added to the compounds, and 72 hr later cell viability was measured using CellTiter Glo (38). Hit cytotoxicity and the 50% toxic concentration (TC50) was determined and compared to the IC50 to calculate the therapeutic index. Test compounds are serially diluted in a plate to plate matrix or stacked plate matrix. All 320 compounds in a source plate are diluted together resulting in a 10 point dose response dilution series. It is visualized as a serial dilution series proceeding vertically through a stack of plates with the high dose plate on top and the low dose plate on the bottom.
Control Drug: Hyamine was used as a positive cytotoxic control. All wells contained 0.5% DMSO.
Preparation of Bladder carcinoma 5637 cells: Cells are harvested and resuspended to 80,000 cells per ml in Complete DMEM/F12®.
Endpoint Read: Following the three day incubation period, the assay plates were equilibrated to room temperature for 30 min and an equal volume (30 μL) of Cell Titer-Glo® reagent (Promega Inc.) is added to each well using a WellMate™ (Matrix, Hudson, N.H.) and plates are incubated for an additional 10 min at room temperature. At the end of the incubation, luminescence is measured using a Perkin Elmer Envision™ multi-label reader (PerkinElmer, Wellesley, Mass.) with an integration time of 0.1 s.
Cytotoxicity. Testing was performed essentially as previously described. Concentration-response testing was performed over a range 0.58-300 μM in a […] well plate format. Bladder carcinoma 5637 cells (ATCC HTB-9) were added to the compounds, and 72 hrs later cell viability was measured using CellTiter Glo (Promega). The 50% toxic concentration (TC50) was determined and compared to the IC50 to calculate the therapeutic index. Hyamine was used as a positive cytotoxic control. All wells contained 0.5% DMSO.

E. coli K1 strain UTI89 [3] = assay: microbe, parasite or virus in culture; conditions: for % Inhibition at 100 μM: HTS primary screen
Source text: The ability of the […] to bind to bacterial capsule, infect, and lyse E. coli UT189 was used as the primary assay to identify the effects of screened compounds on bacterial capsule formation. The phenotypic end-point assay measured the fluorescence generated by cellular processing of Alamar Blue as a direct indicator of cell viability. A total of […] compounds were screened using the primary assay. […] Hits were further evaluated using […] secondary assays for alternative measurement of compound-induced reduction in bacterial capsule formation (secondary assays 1 and 2) and specificity (secondary assays 3 and 4). Confirmed actives with an SI>5 were further investigated and subjected to chemical optimization, followed by secondary assay evaluation. Secondary assays more closely characterized the ability of the compounds to reduce bacterial capsule formation and can be used to examine the mechanism of action of the compounds. The combination of primary assay (to measure capsule reduction), counter assay (for general eukaryotic cell toxicity) and secondary assay (to measure reduction in capsule formation and specificity) were combined to allow a determination of probe efficacy, selectivity, and specificity.
A. Primary Assay: Screening for Inhibitors of Bacterial Capsule Biogenesis.
Primary assay: An end-point assay to measure the amount of K1 phage-induced bacterial cell lysis was employed to determine the compound effect on capsule biogenesis. K1 bacteriophage specifically binds the bacterial capsule during the initial stages of infection. Bacteria without capsule cannot be infected and lysed by the bacteriophage. […] A total of 338,740 compounds were screened at 100 μM in the primary screen Inhibition of phage lysis was calculated relative to the mean of the bacterial (positive) control on each microtiter plate. […] For calculation of S/B/Z value, and CV, the following formulae (in which SD stands for standard deviation) were used: S/B=mean signal/mean background; Z=1-3SD of sample+3SD of control mean of sample−mean of control; % CV=(SD mean signal/mean signal)×100.
IC50 values were calculated using a 4 parameter Levenburg-Marquardt algorithm, with the maximum and minimum locked at 0 and 100 respectively.
Primary assay: The primary assay was conducted in the 1,536 well plate format. Bacterial cultures of E. coli K1 strain UTI89 (cystitis isolate) and isogenic capsule mutant strains (as controls for phage infection) were grown and prepared at the screening center immediately prior to use. Overnight starting cultures of UTI89 were grown at 37° C., and inoculated into 1 liter of LB (starting OD600˜0.03), which was sufficient for screening 40 plates (including ˜10% waste) and ˜40,000 compounds as single points.
Control wells contained UTI89 (wt K1) with 0.5% DMSO as a simulated positive control; UTI89 with 0.5% DMSO and tetracycline for a negative growth control; and media plus vehicle control. 50 mL of LB Broth was inoculated with stock 150 μL E. coli UT189 and grown overnight at 37° C. The next day, cultures were diluted 1:75 in 1 L of LB Broth containing 0.5% DMSO. 3 μL of this culture was added to each plate well, and plates were incubated, inverted, at 37° C. for 2 hr. The K1F bacteriophage stock was diluted 1:8 in LB Broth containing 0.5% DMSO, and 1.5 μL of diluted phage (or media only) was added to the pre-plated test compound wells and appropriate control wells. The plates were centrifuged briefly, and then were incubated, inverted, at 37° C. for an additional 2 hr. Afterward, Alamar Blue reagent (Invitrogen, #DAL1100) was diluted 1:2 with LB broth and 1 μL was added to each plate well.

[4] = first round of synthetic analogues, n = 2
[5] = read-out: K1 phage IC50 (inhibition of K1 capsule formation)

O=C(Nc1cc(-c2ccc(C(F)(F)F)cc2)sc1C(=O)O)c1cc2ccccc2o1 [compound 53470417]
IC50 (E. coli K1 strain UTI89 [1]; [4]): 7.17 µM | IC50 [2]: 72.1 µM | IC50 (E. coli K1 strain UTI89 [3]; read-out: K1 phage IC50, first round of synthetic analogues, n = 3): > 100 µM

CCOc1ccc(-c2cc(NC(=O)c3ccc(Br)o3)c(C(=O)O)s2)cc1 [CID 23602086, 3-(5-Bromofuran-2-carboxamido)-5-(4-ethoxyphenyl)thiophene-2-carboxylic acid]
IC50 (E. coli K1 strain UTI89 [1]; Escherichia coli): < 10 µM | IC50 (E. coli K1 strain UTI89 [3]; [5]): 3.42 µM

COc1ccc(-c2cc(NC(=O)c3c(F)cccc3F)c(C(=O)O)s2)cc1 [CID 53470430]
IC50 (E. coli K1 strain UTI89 [3]; [5]): > 100 µM

O=C(O)c1sc(-c2ccc(OCCCC(F)(F)F)cc2)cc1NC(=O)c1c(F)cccc1F [CID 56643024]
IC50 (E. coli K1 strain UTI89 [3]; [5]): 10.3 µM

[N-]=[N+]=NCCOc1ccc(-c2cc(NC(=O)c3c(F)cccc3F)c(C(=O)O)s2)cc1 [CID 56643025]
IC50 (E. coli K1 strain UTI89 [3]; Escherichia coli, read-out: K1 phage IC50 (inhibition of K1 capsule formation)): ~17 µM

COC(=O)c1sc(-c2ccc(Cl)cc2)cc1NC(=O)c1ccccc1C(=O)O [compound 2814791]
% Inhibition at 100 μM (E. coli K1 strain UTI89 [3]): −0.17%

CCOc1ccc(-c2cc(NC(=O)c3ccc(Br)o3)c(C(=O)O)s2)cc1 [compound 23602086]
IC50 (E. coli K1 strain UTI89 [1]; [4]): < 0.625 µM | IC50 [2]: 68.7 µM

COC(=O)c1sc(-c2ccccc2)cc1NC(=O)c1ccc(F)cc1 [compound 3669658]
% Inhibition at 100 μM (E. coli K1 strain UTI89 [3]): 2.58%

CCCCOc1ccc(-c2cc(NC(=O)c3c(F)cccc3F)c(C(=O)O)s2)cc1 [CID 56643007]
IC50 (E. coli K1 strain UTI89 [3]; [5]): < 0.78 µM

CCOc1ccc(-c2cc(NC(=O)c3c(F)cccc3F)c(C(=O)OC)s2)cc1 [compound 16012549]
IC50 [2]: > 300 µM | IC50 (E. coli K1 strain UTI89 [3]; read-out: K1 phage IC50, purchased analogue series, n = 3): > 100 µM

COC(=O)c1sc(-c2ccccc2)cc1NC(C)=O [compound 4114774]
% Inhibition at 100 μM (E. coli K1 strain UTI89 [3]): 0.68%

O=C(O)c1sc(-c2ccc(OCC(F)(F)F)cc2)cc1NC(=O)c1c(F)cccc1F [CID 56643002]
IC50 (E. coli K1 strain UTI89 [3]; [5]): 2.86 µM

COC(=O)c1sc(-c2ccccc2)cc1NC(=O)c1ccccc1 [compound 6710528]
% Inhibition at 100 μM (E. coli K1 strain UTI89 [3]): 4.18%

CCOc1ccc(-c2cc(NC(=O)c3c(F)cccc3F)c(C(=O)OC)s2)cc1 [CID 16012549]
IC50 (E. coli K1 strain UTI89 [3]; [5]): > 100 µM
